We go through 47 molecules from patent publication US20070259879A1, “Piperazine and piperidine biaryl derivatives” (priority 2006, published 2007).

The IC50 is the concentration needed to halve the response being measured.

The subject of the experiment is HIV-1 pseudotyped virus. Nature of the experiment: HIV-1 pseudotyped virus assay (luciferase reporter gene, single cycle of infection). It counts as cell-based. As to conditions: Human immunodeficiency virus 1, CCR5, 72 h, read-out: Activity (antiviral activity, IC50). The source says:
In this example are illustrated experimental procedures for determining biological activity, such as antiviral activity. For determining biological activity, an HIV-1 infection assay was used to determine the antiviral potency for compounds of the present invention.
For determining biological activity, an HIV-1 pseudotyped virus assay was used to determine the respective antiviral potencies of each compound tested in the assay for comparison. The pseudotyped assay scores for a reduction in infection as indicated by decreased signal from the reporter gene encoding a luciferase enzyme (“reporter gene”). The assay employs cell lines expressing CD4 and either of the primary chemokine receptors (CCR5 or CXCR4) that HIV uses as a co-receptor (“target cells”). Pseudotyped virus was prepared by co-transfection of 293T cells with: 1) a plasmid construct carrying the HIV-1 envelope of choice, in combination with 2) a pseudotyped virus backbone construct in which (a) envelope expression has been abrogated due to a frameshift in the envelope sequence, and (b) the reporter gene replaces nef. Expression of HIV-1 envelope on 293T packaging cells results in the production of a pseudotyped virus carrying the reporter gene that is capable of a single cycle of infection.
The compounds of the present invention being tested for antiviral activity were serially diluted and dose responses determined in duplicate in two separate experiments. The compounds to be tested were added directly to the plated, target cells, followed by the addition of pseudotyped virus described above. The cells were cultured for three days prior harvest. Media and compound were removed, the cell monolayer was washed, lysed by detergent, and then frozen at −80 degrees C. for a minimum of 30 minutes. Following thawing and acclimation to room temperature, luciferase production was quatified by injecting 100 […]I of a substrate (of the enzyme encoded by the reporter gene) into each well followed by detecting the signal (light emitted from the interaction between the enzyme and substrate) after 5 seconds. In the pseudotyped assay, a 50% reduction in signal is significant, and provides the primary cutoff value for assessing antiviral activity (“IC50” is defined as the dilution resulting in a 50% reduction in enzymatic activity as interpolated from a titration curve). Representative compounds according to the present invention, and their antiviral activity, are illustrated in Table 3.
In general terms: In a reporter assay the amount or activity of a reporter protein is the signal.
As for `Cc1ccc(-c2ccc(C(=O)C(=O)N3CCN(C(=O)c4ccccc4)CC3C)cc2)o1` (centres unmarked) [Example 173, 1-(4-Benzoyl-2-methyl-piperazin-1-yl)-2-[4-(5-methyl-furan-2-yl)-phenyl]-ethane-1,2-dione], the half-inhibitory concentration (IC50) was < 5 µM.

For `CC1CN(C(=O)c2ccccc2)CCN1C(=O)C(=O)c1ccc(-n2nccn2)cc1` (centres unmarked) [Example 174, 1-(4-Benzoyl-2-methyl-piperazin-1-yl)-2-(4-[1,2,3]triazol-2-yl-phenyl)-ethane-1,2-dione], the IC50 was < 5 µM.

For the molecule `COc1cc(C(=O)C(=O)N2CCN(C(=O)c3ccccc3)C[C@H]2C)ccc1-c1cnco1` [Example 175], the IC50 was < 5 µM.

As for `C[C@@H]1CN(C(=O)c2ccccc2)CCN1C(=O)C(=O)c1ccc(-c2cncs2)cc1` [Example 176], the half-inhibitory concentration (IC50) is < 5 µM.

As for `C[C@@H]1CN(C(=O)c2ccccc2)CCN1C(=O)C(=O)c1ccc(-c2cscn2)cc1` [Example 177], the IC50 is < 5 µM.

Take `C[C@@H]1CN(C(=O)c2ccccc2)CCN1C(=O)C(=O)c1ccc(-c2cscn2)s1` [Example 178]: the IC50 was < 5 µM.

Take `C[C@@H]1CN(C(=O)c2ccccc2)CCN1C(=O)C(=O)c1ccc(-c2cncs2)s1` [Example 179]: the IC50 is < 5 µM.

Consider `COc1cc(-c2cc(C)no2)ccc1C(=O)C(=O)N1CCN(C(=O)c2ccccc2)C[C@H]1C` [Example 180], for which the half-inhibitory concentration (IC50) was < 5 µM.

Turning to `Cc1cc(-c2cc[nH]n2)ccc1C(=O)C(=O)N1CCN(C(=O)c2ccccc2)C[C@H]1C` [Example 181, 1-((R)-4-Benzoyl-2-methyl-piperazin-1-yl)-2-[2-methyl-4-(1H-pyrazol-3-yl)-phenyl]-ethane-1,2-dione], the IC50 is < 5 µM.

On to `Cc1ncc(-c2ccc(C(=O)C(=O)N3CCN(C(=O)c4ccccc4)C[C@H]3C)s2)s1` [Example 182], for which the IC50 is > 5 µM.

Regarding `C[C@@H]1CN(C(=O)c2ccccc2)CCN1C(=O)C(=O)c1ccc(-c2cc[nH]n2)cc1F` [Example 183], the concentration for half-maximal inhibition (IC50) was < 5 µM.

On to `Cc1cc(C(=O)C(=O)N2CCN(C(=O)c3ccccc3)C[C@H]2C)ccc1-c1cc[nH]n1` [Example 184, 1-((R)-4-Benzoyl-2-methyl-piperazin-1-yl)-2-[3-methyl-4-(1H-pyrazol-3-yl)-phenyl]-ethane-1,2-dione], for which the IC50 was < 5 µM.

Turning to `COc1cc(C(=O)C(=O)N2CCN(C(=O)c3ccccc3)C[C@H]2C)ccc1-c1cc(C)no1` [Example 185], the half-inhibitory concentration (IC50) was < 5 µM.

Take `C[C@@H]1CN(C(=O)c2ccccc2)CCN1C(=O)C(=O)c1ccc(-c2ccn[nH]2)nc1` [Example 186, 1-((R)-4-Benzoyl-2-methyl-piperazin-1-yl)-2-[6-(1H-pyrazol-3-yl)-pyridin-3-yl]-ethane-1,2-dione]: the 50% inhibitory concentration (IC50) is < 5 µM.

As for `C[C@@H]1CN(C(=O)c2ccccc2)CCN1C(=O)C(=O)c1ccc(-c2nccn2C)cc1` [Example 187], the IC50 is > 5 µM.

In the case of `C[C@@H]1CN(C(=O)c2ccccc2)CCN1C(=O)C(=O)c1ccc(-c2nccn2C)s1` [Example 188], the IC50 is > 5 µM.

Turning to `C[C@@H]1CN(C(=O)c2ccccc2)CCN1C(=O)C(=O)c1ccc(-c2cnco2)c(Cl)c1` [Example 189], the IC50 is < 5 µM.

For `COc1cc(-c2cc[nH]n2)ccc1C(=O)C(=O)N1CCN(C(=O)c2ccccc2)C[C@H]1C` [Example 190], the 50% inhibitory concentration (IC50) is < 5 µM.

Regarding `COc1cc(C(=O)C(=O)N2CCN(C(=O)c3ccccc3)C[C@H]2C)ccc1-c1cc[nH]n1` [Example 191], the IC50 was < 5 µM.

Regarding `C[C@@H]1CN(C(=O)c2ccccc2)CCN1C(=O)C(=O)c1ccc(-c2cc[nH]n2)cc1Cl` [Example 192], the IC50 was < 5 µM.

With `C[C@@H]1CN(C(=O)c2ccccc2)CCN1C(=O)C(=O)c1ccc(-n2cccn2)cc1` [Example 193, 1-((R)-4-Benzoyl-2-methyl-piperazin-1-yl)-2-(4-pyrazol-1-yl-phenyl)-ethane-1,2-dione], the IC50 is < 5 µM.

In the case of `Cc1noc(C)c1-c1ccc(C(=O)C(=O)N2CCN(C(=O)c3ccccc3)C[C@H]2C)cn1` [Example 194], the half-inhibitory concentration (IC50) is > 5 µM.

Take `Cc1cc(-n2cccn2)ccc1C(=O)C(=O)N1CCN(C(=O)c2ccccc2)C[C@H]1C` [Example 195, 1-((R)-4-Benzoyl-2-methyl-piperazin-1-yl)-2-(2-methyl-4-pyrazol-1-yl-phenyl)-ethane-1,2-dione]: the 50% inhibitory concentration (IC50) is > 5 µM.

For the molecule `C[C@@H]1CN(C(=O)c2ccccc2)CCN1C(=O)C(=O)c1c[nH]c(-c2cccnc2)c1` [Example 196], the IC50 is > 5 µM.

In the case of `CC1CN(C(=O)c2ccccc2)CCN1C(=O)C(=O)c1ccc(-c2cnn(C)c2)cc1` (centres unmarked) [Example 197], the IC50 was < 5 µM.

Regarding `CC(=O)c1ccc(-c2ccc(C(=O)C(=O)N3CCN(C(=O)c4ccccc4)C[C@H]3C)cc2)s1` [Example 198], the IC50 is < 5 µM.

As to `C[C@@H]1CN(C(=O)c2ccccc2)CCN1C(=O)C(=O)c1ccc(-c2cccnc2)cc1` [Example 199], the IC50 was < 5 µM.

Regarding `CC1CN(C(=O)c2ccccc2)CCN1C(=O)C(=O)c1ccc(-c2ncccc2F)cc1` (centres unmarked) [Example 200], the IC50 was < 5 µM.

With `C[C@@H]1CN(C(=O)c2ccccc2)CCN1C(=O)C(=O)c1ccc(-c2ccc(C(F)(F)F)cn2)cc1` [Example 201], the IC50 was < 5 µM.

As for `COc1cc(-c2ccc(C(=O)C(=O)N3CCN(C(=O)c4ccccc4)C[C@H]3C)cc2)nc(OC)n1` [Example 202], the half-inhibitory concentration (IC50) was < 5 µM.

For the molecule `C[C@@H]1CN(C(=O)c2ccccc2)CCN1C(=O)C(=O)c1ccc(-c2ncccn2)cc1` [Example 203], the IC50 is < 5 µM.

Turning to `C[C@@H]1CN(C(=O)c2ccccc2)CCN1C(=O)C(=O)c1ccc(-c2ccsc2)cc1` [Example 204], the IC50 was < 5 µM.

For the molecule `C[C@@H]1CN(C(=O)c2ccccc2)CCN1C(=O)C(=O)c1ccc(-c2cccs2)cc1` [Example 205], the IC50 was < 5 µM.

Take `C[C@@H]1CN(C(=O)c2ccccc2)CCN1C(=O)C(=O)c1ccc(-c2ccncc2)cc1` [Example 206]: the half-inhibitory concentration (IC50) is < 5 µM.

As for `Cc1ccc(-c2ccc(C(=O)C(=O)N3CCN(C(=O)c4ccccc4)C[C@H]3C)cc2)nc1` [Example 207], the IC50 is < 5 µM.

As to `Cc1ccnc(-c2ccc(C(=O)C(=O)N3CCN(C(=O)c4ccccc4)CC3C)cc2)n1` (centres unmarked) [Example 208], the 50% inhibitory concentration (IC50) is < 5 µM.

For the molecule `Cc1cc(-c2ccc(C(=O)C(=O)N3CCN(C(=O)c4ccccc4)C[C@H]3C)c(Cl)c2)on1` [Example 209], the half-maximal inhibitory concentration (IC50) is < 5 µM.

Consider `Cc1cc(-c2ccc(C(=O)C(=O)N3CCN(C(=O)c4ccccc4)C[C@H]3C)cc2F)on1` [Example 210], for which the 50% inhibitory concentration (IC50) is < 5 µM.

On to `C[C@@H]1CN(C(=O)c2ccccc2)CCN1C(=O)C(=O)c1ccc(N2CCCC2)cc1` [Example 211, 1-((R)-4-Benzoyl-2-methyl-piperazin-1-yl)-2-(4-pyrrolidin-1-yl-phenyl)-ethane-1,2-dione], for which the IC50 was > 5 µM.

As to `C[C@@H]1CN(C(=O)c2ccccc2)CCN1C(=O)C(=O)c1ccc(N2CCOC2=O)cc1` [Example 212, 1-((R)-4-Benzoyl-2-methyl-piperazin-1-yl)-2-[4-(2-oxo-oxazolidin-3-yl)-phenyl]-ethane-1,2-dione], the concentration for half-maximal inhibition (IC50) was > 5 µM.

Take `Cc1cc(C(=O)C(=O)N2CCN(C(=O)c3ccccc3)C[C@H]2C)ccc1-n1cccn1` [Example 213, 1-((R)-4-Benzoyl-2-methyl-piperazin-1-yl)-2-(3-methyl-4-pyrazol-1-yl-phenyl)-ethane-1,2-dione]: the IC50 is > 5 µM.

For `C[C@@H]1CN(C(=O)c2ccccc2)CCN1C(=O)C(=O)c1ccc(-n2cccn2)nc1` [Example 214, 1-((R)-4-Benzoyl-2-methyl-piperazin-1-yl)-2-(6-pyrazol-1-yl-pyridin-3-yl)-ethane-1,2-dione], the IC50 is < 5 µM.

`C[C@@H]1CN(C(=O)c2ccccc2)CCN1C(=O)C(=O)c1ccc(-c2cc[nH]n2)cc1N(C)C` [Example 216, 1-((R)-4-Benzoyl-2-methyl-piperazin-1-yl)-2-[2-dimethylamino-4-(1H-pyrazol-3-yl)-phenyl]-ethane-1,2-dione]: the IC50 was > 5 µM.

As to `C[C@@H]1CN(C(=O)c2ccccc2)CCN1C(=O)C(=O)c1ccc(-n2ccnc2)cc1` [Example 217], the half-maximal inhibitory concentration (IC50) was < 5 µM.

As to `Cc1cc(-n2ccnc2)ccc1C(=O)C(=O)N1CCN(C(=O)c2ccccc2)C[C@H]1C` [Example 218], the IC50 was < 5 µM.

Take `C[C@@H]1CN(C(=O)c2ccccc2)CCN1C(=O)C(=O)c1ccc(-c2cc[nH]n2)cc1N` [Example 219, 1-((R)-4-Benzoyl-2-methyl-piperazin-1-yl)-2-[2-amino-4-(1H-pyrazol-3-yl)-phenyl]-ethane-1,2-dione]: the IC50 is < 5 µM.

Consider `Cc1cc(-c2cc(Cl)c(C(=O)C(=O)N3CCN(C(=O)c4ccccc4)C[C@H]3C)c(Cl)c2)on1` [Example 220], for which the 50% inhibitory concentration (IC50) was > 5 µM.
